Consider one molecule from PMC10404700, “A new member of the flavodoxin superfamily from Fusobacterium nucleatum that functions in heme trafficking and reduction of anaerobilin” (The Journal of Biological Chemistry, 2023).

The target in the assay is T1, FldH (Fusobacterium nucleatum, UniProt Q8RI14).
T1 construct: gene FN1822; full-length, 169 residues, N-terminal His6 tag (pET15b) cut with thrombin; expressed in E. coli BL21(DE3)pLysS; monomer
The assay can be described thus: X-ray crystal structure, […] A. In kind it is binding. To be noted: heme-bound protein; FMN copurified.

SMILES strings stand for the structures.

T1 sequence (Q8RI14 entry or part of it): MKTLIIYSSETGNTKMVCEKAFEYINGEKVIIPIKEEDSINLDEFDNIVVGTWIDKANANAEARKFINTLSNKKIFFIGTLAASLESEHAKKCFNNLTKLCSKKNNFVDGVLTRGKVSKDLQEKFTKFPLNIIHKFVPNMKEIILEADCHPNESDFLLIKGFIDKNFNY

`Cc1cc2nc3c(=O)[nH]c(=O)nc-3n(C[C@H](O)[C@H](O)[C@H](O)COP(=O)(O)O)c2cc1C` [FMN]: the “X-ray crystal structure, 1.6 A” value is listed as “The FMN cofactor is situated at the carboxyl-terminal end of the β-parallel sheet”.
